Format in all cases: functional
One assay deals with Enterococcus faecalis. Kind of assay: In vitro antibacterial activity against Enterococcus faecalis 850.
For assay [1], the system named is Staphylococcus aureus. As to the kind of experiment: In vitro antibacterial activity against Staphylococcus aureus 853.
Assay [2] relates to Escherichia coli. As to the kind of experiment: In vitro antibacterial activity against Escherichia coli 1919.
In a further assay the test system is Clostridium perfringens. Kind of assay: In vitro antibacterial activity against Clostridium perfringens 615E.
The test system of assay [3] is Staphylococcus aureus. Kind of assay: In vitro antibacterial activity against Staphylococcus aureus 663E.
Assay [4] concerns Escherichia coli. Kind of assay: In vitro antibacterial activity against Escherichia coli 1850.

Turning to `CO[C@H]1CCC[C@@H]2C1=C(C(=O)[O-])N1C(=O)[C@H]([C@@H](C)O)C21.[K+]` (some centres not stated), the MIC against Enterococcus faecalis is 32 µg/mL; in the assay on Staphylococcus aureus [1] it was 1 µg/mL; in the assay on Escherichia coli [2] it was 16 µg/mL; in the assay with Clostridium perfringens it was 4000 µg/mL; against Staphylococcus aureus [3], 2 µg/mL; in the assay on Escherichia coli [4], 32 µg/mL.

As to `C[C@@H](O)[C@H]1C(=O)N2C(C(=O)O)=C(SCCNC=N)C[C@H]12.O` [IMIPENEM], the MIC against Enterococcus faecalis was determined as 2 µg/mL; against Staphylococcus aureus [1], 0.1 µg/mL; in the assay with Escherichia coli [2], 0.5 µg/mL; in the assay on Clostridium perfringens, 30 µg/mL; with Staphylococcus aureus [3], 0.12 µg/mL; against Escherichia coli [4], 0.5 µg/mL.

As to `CO[C@@H]1CCC[C@H]2C1=C(C(=O)[O-])N1C(=O)[C@H]([C@@H](C)O)C21.[K+]` (some centres not stated), the MIC was found to be 8 µg/mL in the assay on Enterococcus faecalis; 0.5 µg/mL in the assay on Staphylococcus aureus [1]; 4 µg/mL in the assay on Escherichia coli [2]; 120 µg/mL in the assay with Clostridium perfringens; 0.5 µg/mL with Staphylococcus aureus [3]; 1 µg/mL in the assay with Escherichia coli [4].

As to `CO[C@@]12CCCCC1=C(C(=O)[O-])N1C(=O)[C@H]([C@@H](C)O)[C@H]12.[K+]`, the MIC in the assay with Enterococcus faecalis came out at 16 µg/mL; in the assay on Staphylococcus aureus [1], 4 µg/mL; against Escherichia coli [2] it was 4 µg/mL; against Clostridium perfringens, 2000 µg/mL; in the assay with Staphylococcus aureus [3], 4 µg/mL; in the assay with Escherichia coli [4], 8 µg/mL.

Take `CO[C@@H]1CCC[C@@H]2C1=C(C(=O)[O-])N1C(=O)[C@H]([C@@H](C)O)C21.[K+]` (some centres not stated): the MIC amounted to 32 µg/mL against Enterococcus faecalis; 2 µg/mL in the assay on Staphylococcus aureus [1]; 16 µg/mL against Escherichia coli [2]; 1000 µg/mL against Clostridium perfringens; 2 µg/mL with Staphylococcus aureus [3]; 16 µg/mL against Escherichia coli [4].

As to `CO[C@H]1CCC[C@H]2C1=C(C(=O)[O-])N1C(=O)[C@H]([C@@H](C)O)C21.[K+]` (some centres not stated), the MIC in the assay with Enterococcus faecalis was 1 µg/mL; in the assay with Staphylococcus aureus [1], 0.25 µg/mL; against Escherichia coli [2], 0.5 µg/mL; in the assay on Clostridium perfringens, 30 µg/mL; against Staphylococcus aureus [3], 0.25 µg/mL; in the assay on Escherichia coli [4], 0.5 µg/mL.

Consider `CO[C@]12CCCCC1=C(C(=O)[O-])N1C(=O)[C@H]([C@@H](C)O)[C@H]12.[K+]`, for which the MIC with Enterococcus faecalis worked out at 32 µg/mL; against Staphylococcus aureus [1] it was 8 µg/mL; with Escherichia coli [2] it was 8 µg/mL; in the assay on Clostridium perfringens, 2000 µg/mL; against Staphylococcus aureus [3], 4 µg/mL; in the assay on Escherichia coli [4], 32 µg/mL.

What is called MIC is the smallest concentration in the dilution series that meets the test's criterion for growth inhibition. A low value points to a more susceptible organism.

(Values after ChEMBL document CHEMBL1129762, “Synthesis and antibacterial activity of 4- and 8-methoxy trinems” (1996).)
